Earlier results as cited in patent US20220257506A1, “Alkaline Drink” (WET HOLDINGS (GLOBAL) LIMITED, priority 2019, published 2022).

Columns and labels:
[1] = humans
[2] = not given; remark: listed apart in the source
[3] = acute dosing, murine stroke models
[4] = acute administration, humans
[5] = test system: adrenal and gonadal steroidogenesis; settings: humans, up to 80 mg/day, basal conditions
[6] = test system: testicular endocrine function; settings: dogs, very high doses

C=C(C)[C@@H]1CCC(C)=C[C@H]1c1c(O)cc(CCCCC)cc1O [CBD, Cannabidiol]
decrease of blood pressure (600 mg single dose, nine healthy male volunteers): about 6 mm Hg
resting blood pressure and blood pressure response to stress (single dose, particularly cold stress, post-test periods): reduces resting blood pressure and the blood pressure response to stress
abuse or dependence potential [1]: no effects indicative of any abuse or dependence potential

CCCCCc1cc(O)c2c(c1)OC(C)(C)[C@@H]1CCC(C)=C[C@@H]21 [THC, (−)-trans-Δ^9-tetrahydrocannabinol]
BP and heart rate ([2]; acute dosing, anaesthetised animals, conscious animals and animal models of stress or hypertension): reduced BP and heart rate
BF in large arteries ([2]; chronic dosing, anaesthetised animals): increased BF in large arteries
BP ([2]; chronic dosing, models of stress or hypertension): reduced BP
cerebral BF [3]: increased cerebral BF
HR [4]: increased HR

CC[C@H](C)C(=O)O[C@H]1C[C@@H](C)C=C2C=C[C@H](C)[C@H](CC[C@@H]3C[C@@H](O)CC(=O)O3)[C@H]21 [lovastatin]
effect on adrenal and gonadal steroidogenesis [5]: no effect on adrenal and gonadal steroidogenesis
testicular endocrine function [6]: reduction in testicular endocrine function
